Measurements reported in patent US9393250B2, “Phthalocyanine compounds useful as RecA inhibitors and methods of using same” (University of Saskatchewan, priority 2012, dated 2016).

Experiments:
[1] = tested on: Pseudomonas aeruginosa ATCC27853; assay: Antibiotic sensitivity assay (CFUs/ml), P. aeruginosa; type: cell-based; settings: compound 25 μM; ciprofloxacin 6.5 μM
Method: (§1) Bacterial cultures were diluted to 10^5 cells/mL in LB broth (ATCC25922) or MH broth (ATCC27853, ATCC29212, ATCC29213). Antibiotics and/or phthalocyanines were added at indicated concentrations and the culture was incubated at 37° C. Samples were collected at 0, 24, 48, and 72 hours and plated on LB agar (ATCC25922) or tryptic soy blood agar (ATCC27853, ATCC29212, ATCC29213) to determine CFUs/ml.
(§2) To confirm that the activity of 4,4-Fe-PcTs was not specific to the gram-negative ATCC25922 E. coli, the ability of 4,4-Fe-PcTs to potentiate the activity of ciprofloxacin in another gram-negative (Pseudomonas aeruginosa ATCC27853) strain and two gram-positive (Staphylococcus aureus ATCC29213 and Enterococcus faecalis ATCC29212) strains was evaluated.

[2] = tested on: Staphylococcus aureus ATCC29213; assay: Antibiotic sensitivity assay (CFUs/ml), S. aureus; type: cell-based; settings: compound 25 μM; ciprofloxacin 6.5 μM
Method: as §1, §2

[3] = tested on: SOS response (E. coli strain SS996); assay: SOS induction, GFP regulated by the sulA SOS promoter, flow cytometry; type: cell-based, Escherichia coli; settings: 4,4-Fe-PcTs 25 μM, three hours
Method: To confirm that the bactericidal antibiotic potentiating activity of 4,4-Fe-PcTs was correlated with reduced SOS induction, SOS induction in the E. coli strain SS996 was monitored. This strain contains a green fluorescent protein (GFP) regulated by the sulA SOS promoter.
SS996 cultures were grown to an optical density at 600 nm (OD600) of 0.3. For cultures treated with 4,4-Fe-PcTs, the 4,4-Fe-PcTs was added to give a concentration of 25 μM and the culture was incubated for three hours at 37° C. Antibiotics were then added to yield concentrations of 2.5 μM (CFX), 40 μM (AMP), 43 μM (KAN), 21 μM (TET), 46 μM (CAM), or 808 μM (SPECT). Samples (˜10^6 cells) were taken immediately before the addition of antibiotics (time zero) and every hour for three hours. Samples were washed once in PBS, and resuspended in PBS prior to analysis by flow cytometry. GFP expression was monitored using flow cytometer (Beckman Coulter, Inc.) with a 488 nm argon laser and a 515-545 nm emission. Flow cytometry data were analyzed using Flowjo (Tree Star, Inc.).

E. coli ATCC25922 = assay: Filamentation assay; type: cell-based, Escherichia coli; settings: 4,4-Fe-PcTs 25 μM; CFX 40 nM; three hours
Method: Overnight cultures of E. coli ATCC25922 were grown in LB at 37° C. […] The cells were stained using the standard Gram staining technique and imaged using light microscopy at 100× magnification.

ATCC29522 cells = assay: Biofilm formation assay (crystal violet); type: cell-based, Escherichia coli; settings: Fe-PcTs 25 μM; ciprofloxacin 40 nM; plastic surface, 96-well plate
Method: Biofilm formation on a plastic surface was analyzed using a 96-well plate (Falcon) as described previously. ATCC29522 cells were diluted in LB broth to 1×10^5 CFUs/ml. A 100 μl aliquot of cells was added to each well in the plate. Ciprofloxacin (CFX) was then added at a final concentration of 40 nM to each well and plates were incubated at 37° C. for 20 hours. Wells were aspirated and washed three times with 150 μl of PBS. Wells were stained with 120 μl of 0.1% crystal violet (Fisher) for 20 minutes. The crystal violet stain was aspirated and wells were washed three times with 150 μl of PBS. The plate was air-dried and the dye bound to adherent cells was resolubilized with 150 μl of 30% (v/v) glacial acetic acid (Fisher). The plate was incubated at room temperature for 20 minutes with shaking. The biofilm formation was quantified by measuring the OD600 nm using a plate reader.

EcRecA [4] = molecular target: T1, EcRecA (Escherichia coli, UniProt P0A7G6); settings: gel shift; 0, 10, 100 μM
Method: EcRecA (4 μM), a 1.0-kb double-stranded DNA (dsDNA) PCR product (12 μM in base pairs), and indicated concentrations of 4,4-Fe-PcTs or 3,4-Cu-PcTs were incubated in binding buffer (5 mM MgAc2, 50 mM Tris-Hepes at pH 7.6) for 10 minutes at 37° C. EcRecA bound (slower migrating) and unbound dsDNA were resolved using a 1.0% agarose gel. The gel was stained with ethidium bromide and the fluorescence emission in the gel was recorded using a Kodak GelLogic 200 system.

EcRecA / EcLexA = EcRecA / EcLexA (Escherichia coli, UniProt P0A7G6); settings: in presence of ATPγS
Method: The LexA cleavage reaction (10 μl) contained 1 μM poly-(dT)45, 2 μM EcRecA, 10 μM EcLexA, 0.1 mM ATP-γ-S, 20 mM MgAc2, 50 mM Hepes-Tris at pH 7.6 and indicated concentrations of 4,4-Fe-PcTs or 3,4-Cu-PcTs. The reaction was incubated for 120 minutes at 21° C. and stopped by the addition of 5 μl of loading buffer (30% glycerol, 10% SDS, 0.2 M Tris-HCl at pH 6.8, 0.1% v/v 2-mercaptoethanol and 0.1% w/v bromophenol blue). The products were resolved using a 13% SDS-polyacrylamide gel. The proteins were stained with Coomassie Blue-R250.

mouse bone marrow cells = assay: Viability of mouse bone marrow cells; type: cell-based; settings: maximum concentration tested (100 μM); 24 and 48 hours
Description: Error bars represent the standard deviation from three independent experiments.

EcRecA [5] = molecular target: T1, EcRecA; settings: compound 10 μM; poly-(dT)36-stimulated; relative to reaction without inhibitor
Method: An ATPase assay [18] was used to screen a set of commercially available anionic, aromatic molecules for inhibitors of RecA ATPase activity. The release of inorganic phosphate by ATP hydrolysis was monitored using a Malachite Green phosphate assay [18]. The ssDNA-dependent ATPase reaction contained 1 μM EcRecA, 6 μM ssDNA (poly-(dT)36, concentration in nucleotides), 5 mM ATP, 50 mM Tris-Hepes buffer at pH 7.4, 10 mM MgCl2, 0.1% v/v 2-mercaptoethanol, and indicated amounts of 4,4-Fe-PcTs or 3,4-Cu-PcTs. Phosphate levels were measured by transferring 25 μl of ATPase reaction to 475 μl of malachite green phosphate assay, which contained 0.033% w/v Malachite Green, 1.3% w/v ammonium molybdate. 1.0 M HCl was used to monitor the release of inorganic phosphate by ATP hydrolysis [18]. The green complex formed between Malachite Green, molybdate, and free orthophosphate was measured by recording the absorbance at 620 nm.
Results are the average of two independent experiments where the deviation was less than 10%.

EcRecA [6] = molecular target: T1, EcRecA; settings: gel shift; 0, 10, 100 μM; remark: listed apart in the source

T1 sequence (P0A7G6 whole entry): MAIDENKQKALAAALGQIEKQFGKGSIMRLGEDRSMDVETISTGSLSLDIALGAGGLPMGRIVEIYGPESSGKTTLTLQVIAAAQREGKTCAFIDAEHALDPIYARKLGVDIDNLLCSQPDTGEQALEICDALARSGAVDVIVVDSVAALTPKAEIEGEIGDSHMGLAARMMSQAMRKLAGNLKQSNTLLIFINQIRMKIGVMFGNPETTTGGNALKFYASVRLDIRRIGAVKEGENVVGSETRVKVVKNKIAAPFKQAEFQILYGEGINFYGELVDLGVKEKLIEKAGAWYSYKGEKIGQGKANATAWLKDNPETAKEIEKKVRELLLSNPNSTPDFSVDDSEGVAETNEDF
Chain of EcRecA / EcLexA (P0A7G6 whole entry): as above

iron (III) phthalocyanine-4,4′,4″,4′″-tetrasulfonic acid [4,4-Fe-PcTs]
potentiation of ciprofloxacin activity [1]: potentiated the activity of ciprofloxacin
potentiation of ciprofloxacin activity [2]: potentiated the activity of ciprofloxacin
effect on ampicillin-induced SOS response (GFP) ([3]; AMP 40 μM): reduced the ability
effect on ciprofloxacin-induced SOS response (GFP) ([3]; CFX 2.5 μM): reduced the ability
effect on ciprofloxacin-induced in vitro filamentation (E. coli ATCC25922): reduced the ability of ciprofloxacin to induce
effect on ciprofloxacin-induced biofilm formation (ATCC29522 cells): reduced the ability of ciprofloxacin to induce
inhibition of RecA dsDNA-binding activity (EcRecA [4]): in the micromolar range
inhibition of LexA cleavage (EcRecA / EcLexA): inhibited
toxicity to mouse bone marrow (mouse bone marrow cells): not toxic
inhibition of EcRecA ATPase activity (EcRecA [5]): high degree of inhibition
inhibition of RecA ssDNA-binding activity (EcRecA [6]): in the micromolar range
